Assay results published in patent US9464064B2, “HCV helicase inhibitors and methods of use thereof” (University of Kansas, priority 2011, dated 2016).
Positions of bridges follow the written chain, without caps; N, C: chain ends. Non-standard residues stand in square brackets, D forms with d. Residues, ends and D or L forms follow the SMILES beside them. ξ: configuration not given here. *: point of attachment. ξNMePhe(4-NMe2) = CNC(Cc1ccc(N(C)C)cc1)C(=O)O; Picolinoyl(3-OH) = O=C(c1ncccc1O)*; ξPip(4-oxo) = O=C1CCNC(C(=O)O)C1; Phg = N[CH](C(=O)O)c1ccccc1; Abu = CC[CH](N)C(=O)O

Target: T1, HCV NS3 helicase NS3h_1b(con1) (Hepatitis C virus genotype 1b, UniProt Q9WMX2)
T1 construct: truncated C-terminally His-tagged NS3 proteins lacking the N-terminal protease, called NS3h; His-tag (C); made in house
T1 sequence (Q9WMX2 1192-1657): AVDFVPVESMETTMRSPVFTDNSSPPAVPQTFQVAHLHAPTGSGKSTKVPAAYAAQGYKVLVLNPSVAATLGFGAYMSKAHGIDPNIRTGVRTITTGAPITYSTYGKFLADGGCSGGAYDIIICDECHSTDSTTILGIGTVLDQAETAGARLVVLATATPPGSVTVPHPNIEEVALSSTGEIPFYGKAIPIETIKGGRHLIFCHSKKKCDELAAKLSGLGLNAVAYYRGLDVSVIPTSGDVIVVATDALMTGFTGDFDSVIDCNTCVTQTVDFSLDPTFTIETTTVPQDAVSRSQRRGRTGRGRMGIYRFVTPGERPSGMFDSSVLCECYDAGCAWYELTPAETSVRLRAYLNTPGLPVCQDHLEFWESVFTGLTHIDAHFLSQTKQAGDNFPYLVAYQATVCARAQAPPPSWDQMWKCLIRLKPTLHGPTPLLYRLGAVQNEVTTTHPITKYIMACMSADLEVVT
Assay: MBHA screen of NCI mechanistic set library at 20 μM (percent inhibition, compound interference)
Type: biochemical
Conditions: compounds at 20 μM; for Inh. (%) (Inhibition): calculated from Equation 1
In short: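 Molecular beacon-based DNA unwinding assay; compounds screened at 20 μM in triplicate, with DMSO-only negative and 500 nM dT20 positive controls. Fluorescence (ex 643/em 670 nm) was read before and 30 min after adding ATP to 1 mM. Percent inhibition came from the change relative to DMSO controls; interference from pre-ATP fluorescence versus DMSO controls.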

[1] = MBHA with DNA substrate, assay interference calculated with Equation 2
[2] = assay interference calculated with Equation 2 (fluorescence vs DMSO-only controls before ATP)

Compound | Int.* (Ratio) (Interference) [1] | Inh. (%) (Inhibition) (MBHA with DNA substrate) | Inh. (%) (Inhibition) (MBHA with a DNA substrate) | Int.* (Ratio) (Interference) [2]
Cc1ccc2[nH]c(O)c(N=Nc3ccccc3[N+](=O)[O-])c2c1 [Compound 117915] | 1.00 Ratio | 1.4% |  | 
Cc1ccc2[c](c1)[Sn]([c]1ccccc1)([c]1ccccc1)[c]1cc(C)ccc1N2C [Compound 118030] | 0.92 Ratio | −13.1% |  | 
Cc1ccc(C)c2c(N=Nc3ccccc3[N+](=O)[O-])c(O)[nH]c12 [Compound 118732] | 0.89 Ratio | 14.2% |  | 
Cc1ccc(Cl)c2c(N=Nc3ccccc3[N+](=O)[O-])c(O)[nH]c12 [Compound 118735] |  |  | −5.2% | 0.96 Ratio
CNc1nc(N(C)C)nc(N(C)C)n1 [Compound 118742] |  |  | 10.6% | 1.01 Ratio
S=C=NCc1ccccc1 [Compound 118976] | 0.96 Ratio | 13.9% |  | 
Cc1c2ccncc2c(C)c2c1sc1ccccc12 [Compound 119686] |  |  | 8.9% | 1.18 Ratio
N.N.[Cl][Pt][Cl] [Compound 119875] | 0.83 Ratio | 25.1% |  | 
CCCNC1=C(C)C(=O)C2=C(C1=O)[C@H](COC(N)=O)[C@]1(OC)[C@@H]3N[C@@H]3CN21 [Compound 123115] |  |  | −25.7% | 0.96 Ratio
Cc1c(N)nc([C@H](CC(N)=O)NC[C@H](N)C(N)=O)nc1C(=O)N[C@H](C(=O)N[C@H](C)[C@@H](O)[C@H](C)C(=O)N[C@H](C(=O)NCCc1nc(-c2nc(C(=O)NCCC[S+](C)C)cs2)cs1)[C@@H](C)O)[C@@H](OC1OC(CO)C(O)C(O)C1OC1OC(CO)C(O)C(OC(N)=O)C1O)c1cnc[nH]1 (stereo partly shown) [Compound 125066] | 0.79 Ratio | 15.8% |  | 
CC1=C\C(O)CC(=O)Cc2nc(co2)C(=O)N2CCC=C2C(=O)OC(C(C)C)C(C)/C=C/C(=O)NC/C=C\1.CCC1NC(=O)C(NC(=O)c2ncccc2O)C(C)OC(=O)C(c2ccccc2)NC(=O)C2CC(=O)CCN2C(=O)C(Cc2ccc(N(C)C)cc2)N(C)C(=O)C2CCCN2C1=O (stereo not shown) [Compound 125176] ({Picolinoyl(3-OH)}-T[Abu]P[ξNMePhe(4-NMe2)][ξPip(4-oxo)][Phg]; ester 1-C; configuration not given here) |  |  | −20.2% | 0.90 Ratio
O=C1C(=O)c2ccccc2C(O)=C1CC=C(Cl)Cl [Compound 126771] | 1.12 Ratio | −9.7% |  | 
COc1ccc(-c2cc(=O)c3c(O)cc(O)cc3o2)cc1OC [Compound 128305] |  |  | −4.3% | 0.99 Ratio
c1ccc2c(c1)nnn1c3cnccc3nc21 [Compound 128734] |  |  | −3.1% | 0.91 Ratio
CCC1=C(C[C@H]2NCCc3cc(OC)c(OC)cc32)C[C@H]2c3cc(OC)c(OC)cc3CCN2C1 [Compound 129414] |  |  | 12.0% | 1.08 Ratio
CC(CN1CC(=O)NC(=O)C1)N1CC(=O)NC(=O)C1 (stereo not shown) [Compound 129943] |  |  | −5.2% | 1.13 Ratio
COC1=C(N)C(=O)c2nc(C)ccc2C1=O [Compound 132493] |  |  | −22.9% | 1.07 Ratio
CC[C@](C)(O)C(=O)O[C@H]1C(=O)O[C@@H]2C[C@H]3C(C)=CC(=O)[C@@H](O)[C@]3(C)[C@H]3C4(O)OC[C@]32[C@@H]1[C@@H](C)[C@H]4O [Compound 132791] |  |  | 8.2% | 0.98 Ratio
Br.COC1CN(C)C(=Nc2cccc3ccccc23)S1 (stereo not shown) [Compound 135996] | 1.07 Ratio | −14.0% |  | 

Compound | Int.* (Ratio) (Interference) [1] | Inh. (%) (Inhibition) (MBHA with DNA substrate) | Inh. (%) (Inhibition) (MBHA with a DNA substrate) | Int.* (Ratio) (Interference) [2]
CC1=CC23C(COC(=O)C24CO4)C(C(=O)O)=CC3C1C.NCc1ccccc1 (stereo not shown) [Compound 136037] | 1.00 Ratio | 3.9% |  | 
CC[C@@]1(O)C[C@H](OC2CC(N(C)C)C(O)C(C)O2)c2c(O)c3c(c(O)c2[C@H]1OC1CC(N(C)C)C(O)C(C)O1)C(=O)c1cccc(O)c1C3=O (stereo partly shown) [Compound 136044] | 0.33 Ratio | 47.9% |  | 
CCCC(=O)OCC1OC(n2ccc(N)nc2=O)C(OC(=O)CCC)C1OC(=O)CCC (stereo not shown) [Compound 138429] |  |  | 10.9% | 1.09 Ratio
CCS(=O)(=O)O.CN(C)C(=O)c1cccc(COc2ccc(N3C(N)=NC(N)=NC3(C)C)cc2Cl)c1 [Compound 139105] |  |  | 7.0% | 0.98 Ratio
Cc1cccc(NC(=O)/C=C/c2ccc([N+](=O)[O-])cc2)c1 [Compound 139109] | 1.06 Ratio | −1.2% |  | 
CN1c2c(nc(N)[nH]c2=O)NCC1CCNc1ccc(C(=O)N[C@@H](CCC(=O)[O-])C(=O)[O-])cc1.[Na+].[Na+] (stereo partly shown) [Compound 139490] | 0.95 Ratio | −13.8% |  | 
CC(C)=CCC(OC(=O)C=C(C)C)C1=CC(=O)c2c(O)ccc(O)c2C1=O (stereo not shown) [Compound 140377] |  |  | 9.4% | 0.93 Ratio
O=S(=O)(c1cccc(N=C=S)c1)c1cccc(N=C=S)c1 [Compound 140911] | 0.99 Ratio | 3.1% |  | 
CCN(CC)CCNc1ccc(CO)c2sc3ccccc3c(=O)c12 [Compound 142982] | 0.75 Ratio | 53.1% |  | 
Cl.NC(=O)c1cn(C2OC(CO)C(O)C2O)c2ncnc(N)c12 (stereo not shown) [Compound 143648] |  |  | −4.1% | 0.99 Ratio
C=C1C(=O)OCC2C(C(=O)O)=CC3C(C)C(C)=CC123 (stereo not shown) [Compound 145150] | 1.12 Ratio | −11.3% |  | 
CC(C)(C)CC(C)(C)NCC(O)COc1ccc(C(C)(C)c2ccc(OCC(O)CNC(C)(C)CC(C)(C)C)cc2)cc1.Cl (stereo not shown) [Compound 145366] | 0.53 Ratio | 33.1% |  | 
O=C1NC(c2cccc3ccccc23)Nc2ccccc21 (stereo not shown) [Compound 145669] | 1.14 Ratio | 14.8% |  | 
O=c1cnn(C2OC(CO)C(O)C2O)c(=S)[nH]1 (stereo not shown) [Compound 146268] | 1.15 Ratio | 0.2% |  | 
COc1cc2c[n+](C)c3c4cc5c(cc4ccc3c2cc1OC)OCO5 [Compound 146397] | 0.67 Ratio | 34.3% |  | 
O=c1[nH]c(=O)n(C2OC(CO)C(O)C2O)cc1F (stereo not shown) [Compound 146604] | 1.12 Ratio | 6.1% |  | 
COc1ccc(C[C@@H]2NC[C@@H](O)[C@@H]2OC(C)=O)cc1.Cl [Compound 147340] |  |  | −5.2% | 1.01 Ratio
O=c1[nH]c(=O)n(C2CCCO2)cc1F (stereo not shown) [Compound 148958] | 0.99 Ratio | −8.9% |  | 
COc1cc(NC(C)CCCN)c2ncccc2c1.O=P(O)(O)O.O=P(O)(O)O (stereo not shown) [Compound 149765] | 0.94 Ratio | 13.2% |  | 
